In PMC12844124, “Synthesis and Study of Substituted Chalcones Combined with Fluoroazobenzenes—New Photoswitches for Application in Biological Systems” (Molecules, 2026):

Experiments:
Format in all cases: physicochemical
[1] = Photostationary state (PSS) composition by 19F NMR; conditions: irradiation 525 nm, DMSO-d6
Text: Azo compounds have been applied in various fields due to their ability to undergo structural changes, with one of the most interesting applications being the direct conversion of light into mechanical energy. However, azobenzenes generally face two main limitations that hinder their practical use in biological and materials sciences. The first is the need for UV light to induce the E→Z isomerization through π→π* excitation, which can potentially interfere with and damage the surrounding environment. The second limitation is the typically incomplete reverse Z→E photoisomerization, which is induced by irradiation in the visible region. In this region, the n→π* bands of the E and Z isomers largely overlap, making it difficult to achieve E-rich photostationary states (PSSs) after back-switching. These limitations can be overcome by modifying azobenzene in such a way that the n→π* bands of the E and Z isomers are sufficiently separated. If the separation is large enough, the two n→π* bands can be distinct, allowing visible light to selectively isomerize both isomers with high to complete E/Z photoconversions. We are looking for switches that operate within the visible light range of 380–750 nm, which is harmless. Fluorine-substituted azobenzenes are well-suited for designing visible-light-responsive systems, offering stable and bidirectional photoconversions along with tissue-compatible properties. We confirmed that the compounds we synthesized successfully dock with tubulin. In the next step, we tested whether the added azo compound would meet our expectations as a visible light switch. For this purpose, we used NMR spectroscopy. We measured ^19F spectra of (17a–17c, 17e–17g, and 17i–17l) at nine wavelengths from 390 nm to 610 nm to check which wavelengths produce the most Z isomer after exposure (see Section S4.2 in Supplementary Materials). We selected DMSO as the solvent due to its ability to dissolve both polar and nonpolar molecules, which is essential for the analytical methods employed in this study. Its intermediate polarity also makes it a good surrogate for both organic and aqueous solvents. Additionally, DMSO is commonly used for preparing stock solutions, which are then illuminated and diluted into aqueous systems for assessing biological activity. […]
Figure 2 (a) Photostationary state (PSS) compositions for chalcones (17a–17c, 17e–17g, and 17i–17l) determined by ^19F NMR analysis (c ≈ 100 mM in DMSO-d6), presented in a bar chart; (b) representative multiple photoswitching rounds of 60 µM of (17j) in DMSO by pulsed green (525 nm) and blue (430 nm) light illumination. The photochemical stability of the drug is analyzed via repeated cycles of irradiation (software: Microsoft Excel).

[2] = Changes over time of Z to E transition by 19F NMR; conditions: light 525 nm, 100 mM in DMSO
Text: We can observe that for electromagnetic radiation in the range of wavelengths 390 nm to 610 nm, transitions from E to Z of about 0–76% are obtained. The best results for all compounds are in visible wavelengths 505 nm or 525 nm (30.59–75.44%). From analyzing Figure 2 we can draw the following conclusions: all synthesized compounds undergo switching under visible light (this is important because UV radiation can damage the DNA of cells, inhibiting replication and, as a result, preventing cell division). For the 2,6-difluoro substituents (17i), (17j), (17k), and (17l) with values of 74.84%, 73.2%, 74.39%, and 75.44%, respectively, the largest share of the Z configuration is at (525 nm) and, for the rest of (17a), (17b), (17c), (17e), (17f), and (17g), it is in range of 30.57–47.13% at 505 nm. […] Multiple cycles of photoreversible switching under alternating green and blue light irradiation, with no significant photobleaching or degradation, confirmed the repeatable and robust photochromic conversion of the synthesized azobenzenes (Figure 2b). Then we measured changes over time (transitions from Z to E, upon irradiation with 505 nm for (17a–17c) and (17e–17g), and 525 nm for (17i–17l) compounds (Figure 3, and see Section S4.3 in Supplementary Materials).

[3] = UV–VIS spectra of E/Z isomers in DMSO; conditions: for Δ λmax n→π*: between E and Z isomers
Method: For this purpose, the UV–VIS spectra were measured for all synthesized hybrids (17a–17l) at concentrations from 20 to 500 µM in dimethyl sulfoxide (DMSO) in light at λ 505 nm and for (17a–17c), (17e–17g), and (17i–17l) at λ 525 nm, respectively, as detailed in Table 1 (see Section S4.4 in Supplementary Materials).

Solubility in DMSO = experiment: Solubility in DMSO

| SMILES | share of the Z configuration (PSS) [1] [%] | Z isomer, changes over time ([2]; 0 h) [%] | Z isomer, changes over time ([2]; 1 h) [%] | Z isomer, changes over time ([2]; 2 h) [%] | Z isomer, changes over time ([2]; 3 h) [%] | Z isomer, changes over time ([2]; 4 h) [%] | Z isomer, changes over time ([2]; 5 h) [%] | Z isomer, changes over time ([2]; 6 h) [%] | Z isomer, changes over time ([2]; 7 h) [%] | Z isomer, changes over time ([2]; 8 h) [%] | Δ (Z to E change 0 h to 8 h) [2] [%] | εmax (n→π*) ([3]; E isomer) [dm^3·mol^−1·cm^−1] | λmax n→π* (E) ([3]; E isomer) [nm] | εmax (n→π*) ([3]; Z isomer) [dm^3·mol^−1·cm^−1] | λmax n→π* (Z) ([3]; Z isomer) [nm] | Δ λmax n→π* [3] [nm] | solubility in DMSO (Solubility in DMSO) |
| --- | --- | --- | --- | --- | --- | --- | --- | --- | --- | --- | --- | --- | --- | --- | --- | --- | --- |
| O=C(/C=C/c1ccc(Br)cc1)c1cccc(/N=N/c2c(F)cccc2F)c1 [Compound 17l] | 75.44 | 75.44 | 74.04 | 72.7 | 71.56 | 70.77 | 69.92 | 68.63 | 67.93 | 67.78 | 7.66 | 902 | 448.6 | 1074 | 417.9 | 30.7 |  |
| O=C(/C=C/c1ccc(Br)cc1)c1cccc(/N=N/c2ccc(F)cc2)c1 [Compound 17d] |  |  |  |  |  |  |  |  |  |  |  | 660 | 440.8 | 850 | 434.1 | 6.7 | poorly soluble |
| COc1cc(/C=C/C(=O)c2cccc(/N=N/c3c(F)cccc3F)c2)cc(OC)c1OC [Compound 17k] | 74.39 | 74.39 | 74.02 | 72.48 | 72.26 | 70.95 | 70.43 | 69.33 | 67.93 | 67.18 | 7.21 |  |  |  |  |  |  |
| COc1ccc(/C=C/C(=O)c2cccc(/N=N/c3c(F)cccc3F)c2)cc1OC [Compound 17i] | 74.84 | 74.84 | 73.32 | 72.17 | 70.9 | 69.59 | 68.98 | 68 | 67.46 | 66.19 | 8.65 |  |  |  |  |  |  |
| O=C(/C=C/c1ccc(Br)cc1)c1cccc(/N=N/c2ccc(F)cc2F)c1 [Compound 17h] |  |  |  |  |  |  |  |  |  |  |  | 796 | 441.2 | 1016 | 426.9 | 14.3 | poorly soluble |
